Test [1] deals with influenza B virus strain (B/Lee/1940). It is filed as cell-based.
The subject of test [2] is H1N1pdm influenza virus strain (A/Shizuoka/830/2009). The class given is cell-based.
Test [3] relates to H3N2 influenza virus strain (A/Memphis/l/1971). The class given is cell-based.
The test system of test [4] is H1N1pdm influenza virus strain (A/Shizuoka/830/2009). The class given is cell-based. This is another data set of the same source.
The subject of test [5] is H1N1 (laboratory strain) influenza virus strain. The class given is cell-based, influenza A virus.
The test system of test [6] is influenza B virus strain (B/Lee/1940). It is filed as cell-based. This is another data set of the same source.
Test [7] deals with H3N2 influenza virus strain (A/Memphis/l/1971). The class given is cell-based. The source holds these as a separate data set.
Test [8] relates to H1N1 (laboratory strain) influenza virus strain. It is filed as cell-based, influenza A virus. This is another data set of the same source.
The subject of test [9] is H1N1 influenza virus strain (A/Puerto Rico/8/1934). The following applies: in vivo.

On to “Pro-Met-Leu-Lys-Glu (PMLKE) [SEQ ID NO: 2]”, for which the “HA titer of influenza B virus” value in test [1] was “increases”. The “amount of influenza virus (virus proliferation capacity) by focus assay, low concentration” value in test [2], in [5] and in [7] was “enhances the virus proliferation capacity” each time. Besides, the “HA titer of influenza virus, low Bax inhibitor concentration” value in [3], in [4] and in test [8] was “increase in the HA titer of the influenza virus was also observed” each time. For the same substance, in test [6], the “amount of influenza B virus (virus proliferation capacity) by plaque assay” value is “exhibit the effect of enhancing the virus proliferation capacity”.
For “Val-Pro-Met-Leu-Lys (VPMLK) [SEQ ID NO: 1]”, the “HA titer of influenza B virus” value in test [1] is given as “increases”. The “amount of influenza virus (virus proliferation capacity) by focus assay” value in test [2] and in [7] was “exhibits the effect of enhancing the virus proliferation capacity” each time. Further, the “HA titer of influenza virus” value in test [3] and in test [4] was “increases” throughout. In addition, the “HA titer of influenza virus, low Bax inhibitor concentration” value in test [3], in test [4] and in [8] was “increases” each time. Also, the “HA titer of influenza virus, time-dependent” value in [3] and in [4] was “increases the HA titer of the influenza virus strains in the early stages of the culture” throughout. Further, the “amount of influenza B virus (virus proliferation capacity) by plaque assay” value in test [6] was “exhibit the effect of enhancing the virus proliferation capacity”.
Regarding “Val-Ser-Ala-Leu-Lys (VSALK) [SEQ ID NO: 7]”, in test [9], the “increase of viral titer versus control group” value amounted to 1.27 times and the “viral titer compared with 10-fold control group (5×10^3 EID50/chicken egg)” value is “higher”.

These data come from patent US12305197B2, “Proliferation method” (Kao Corporation, priority 2019, dated 2025).
